Where two headings read alike, the source gives them in different places.
Test system: HCMV
Type: cell-based
Settings: for UL47 (P16784) protein, numerical value of heatmap FIG. 6C / UL69 (P16749) protein, numerical value of heatmap FIG. 6C / UL70 (P17149) protein, numerical value of heatmap FIG. 6C / UL83 (P06725) protein, numerical value of heatmap FIG. 6C / UL132 (P69338) protein, numerical value of heatmap FIG. 6C / US15 (P09718) protein, numerical value of heatmap FIG. 6C / sp|P16810|IR12_HCMVA (P16810) protein, numerical value of heatmap FIG. 6C / DUT (P16824) protein, numerical value of heatmap FIG. 6C / TRM3 (P16732) protein, numerical value of heatmap FIG. 6C / TRX1 (P16783) protein, numerical value of heatmap FIG. 6C / TRX2 (P16728) protein, numerical value of heatmap FIG. 6C / UL24 (P16760) protein, numerical value of heatmap FIG. 6C / UL40 (P16780) protein, numerical value of heatmap FIG. 6C / UL49 (P16786) protein, numerical value of heatmap FIG. 6C / sp|P16808|IR10_HCMVA (P16808) protein, numerical value of heatmap FIG. 6C: LL
Protocol: In example herpesvirus PRM assay methods shown herein, cell pellets were lysed in 2% SDS, 100 mM NaCl, 0.5 mM EDTA, 50 mM Tris, pH 8.2, and 50 μg of protein was reduced and alkylated with 25 mM TCEP and 50 mM CAM respectively for 20 min at 70° C. Proteins were then precipitated via methanol chloroform precipitation (Wessel & Flugg, Anal Biochem. 138(1):141-143, 1984), resuspended in 50 mM HEPES, pH 8.2 and digested overnight with trypsin (50:1 protein:enzyme w/w ratio). Digested peptides were desalted by SDB-RPS StageTip as previously described (Lum et al., Cell Syst., 7(6):[…], 2018; Greco et al., Methods Mol Biol 1410:39-63, 2016; Federspiel & Cristea, Methods Mol Biol., 1977:115-143, 2019).
Peptides (1.0 μg on column) were analyzed by LC-MS/MS using a Dionex Ultimate 3000 UHPLC coupled online to an EASYSpray ion source and a Q Exactive HF. Peptides were separated on an EASYSpray C18 column (75 μm×25 cm) heated to 50° C. using a linear gradient of 5% B to 32% B over 60 min at a flow rate of 250 nL/min and were ionized at 1.7 kv. Mobile phase A consisted of 0.1% FA in H2O and mobile phase B consisted of 0.1% FA, 2.9% H2O in ACN.
The PRM method was controlled by a peptide inclusion list with retention time windows of 6 min for selected precursor ions.
The PRM assay was developed and analyzed using the open-source software Skyline (Maclean et al., Bioinformatics 26(7):966-968, 2010). Summed area under the curve of 3-4 transitions per peptide was used for quantitation. Targeted peptides were normalized to host protein loading control peptides. Peptide values for each sample were scaled to the average of each peptide across all runs. The average of multiple peptides was used as the inferred value for the protein measurement when more than one peptide was quantified (Federspiel et al., PLoS Biol. 17(9):e3000437. Doi: 10.1371/journal.pbio.3000437). PRM quantitation data were graphed using the Python Seaborn and Matplotlib libraries.
MRC5 primary human fibroblasts (HFs) (ATCC CCL-171) were used as the model system for HSV-1 and HCMV infections and were cultured in complete growth medium (DMEM supplemented with 10% fetal bovine serum and 1% penicillin-streptomycin antibiotics) at 37° C. and 5% CO2. iSLK.219 cells harboring latent KSHV (a gift from Dr. Britt Glaunsinger, University of California, Berkeley) were grown in complete growth medium supplemented with 500 μg/ml hygromycin (ThermoFisher Scientific, 10687010) at 37° C. and 5% CO2. All cells were used for experiments within a maximum of 10 passages.
Wild type HSV-1 strain 17+ (a gift from Beate Sodeik, Hannover Medical School, Hannover, Germany) was propagated as previously described (Diner et al., 2015). Briefly, PO stocks were generated by electroporating pBAC-HSV-1 into U-2 OS cells. […] In a similar manner, wild type HCMV strain AD169 was produced from BAC electroporation into HFs and working stocks were propagated by infecting HFs at a low level. In both cases, cell-associated virus was released by sonication, combined with supernatant virus, then concentrated by ultracentrifugation (20,000 rpm, 2 hours, 4° C. with SW28 swinging bucket rotor [Beckman Coulter]) over a 10% ficoll (HSV-1) or 20% sorbitol (HCMV) cushion. Virus stock titers were determined by plaque assay for HSV-1 or tissue culture infectious dose (TCID50) for HCMV and infections were performed at a multiplicity of infection (MOI) of 3.
12 hours prior to virus infection or reactivation, cells were treated with either the small molecule drug or DMSO/PBS control at an equivalent volume. […] For infection cycles lasting longer than 24 hours, small molecule drugs were re-added to the cell culture medium every 24 hours. Upon collection, cells were rinsed with PBS, scraped into a microcentrifuge tube, pelleted by centrifugation, and rinsed again with PBS.

## Nc1ccn(C[C@@H](CO)OCP(=O)(O)O)c(=O)n1 [CDV, cidofovir]
Timepoint 48
  UL47 (P16784) protein, numerical value of heatmap FIG. 6C: 0.03052
  UL69 (P16749) protein, numerical value of heatmap FIG. 6C: 0.2559
  UL70 (P17149) protein, numerical value of heatmap FIG. 6C: 0.3143
  UL83 (P06725) protein, numerical value of heatmap FIG. 6C: 0.03791
  UL132 (P69338) protein, numerical value of heatmap FIG. 6C: 0.1131
  US15 (P09718) protein, numerical value of heatmap FIG. 6C: 1.201
  sp|P16810|IR12_HCMVA (P16810) protein, numerical value of heatmap FIG. 6C: 0.2103
Timepoint 72
  DUT (P16824) protein, numerical value of heatmap FIG. 6C: 0.6275
  TRM3 (P16732) protein, numerical value of heatmap FIG. 6C: 0.4913
  TRX1 (P16783) protein, numerical value of heatmap FIG. 6C: 0.3363
  TRX2 (P16728) protein, numerical value of heatmap FIG. 6C: 0.3619
  UL24 (P16760) protein, numerical value of heatmap FIG. 6C: 0.3923
  UL40 (P16780) protein, numerical value of heatmap FIG. 6C: 0.7811
  UL47 (P16784) protein, numerical value of heatmap FIG. 6C: 0.4114
  UL49 (P16786) protein, numerical value of heatmap FIG. 6C: 0.5948
  UL69 (P16749) protein, numerical value of heatmap FIG. 6C: 0.6759
  UL70 (P17149) protein, numerical value of heatmap FIG. 6C: 0.743
  UL83 (P06725) protein, numerical value of heatmap FIG. 6C: 0.4276
  UL132 (P69338) protein, numerical value of heatmap FIG. 6C: 0.4516
  US15 (P09718) protein, numerical value of heatmap FIG. 6C: 0.8899
  sp|P16808|IR10_HCMVA (P16808) protein, numerical value of heatmap FIG. 6C: 0.2743
  sp|P16810|IR12_HCMVA (P16810) protein, numerical value of heatmap FIG. 6C: 0.6875
Timepoint 96
  DUT (P16824) protein, numerical value of heatmap FIG. 6C: 0.7823
  TRM3 (P16732) protein, numerical value of heatmap FIG. 6C: 0.7025
  TRX1 (P16783) protein, numerical value of heatmap FIG. 6C: 0.8409
  TRX2 (P16728) protein, numerical value of heatmap FIG. 6C: 0.8413
  UL24 (P16760) protein, numerical value of heatmap FIG. 6C: 0.7085
  UL40 (P16780) protein, numerical value of heatmap FIG. 6C: 0.7467
  UL47 (P16784) protein, numerical value of heatmap FIG. 6C: 0.7604
  UL69 (P16749) protein, numerical value of heatmap FIG. 6C: 0.9032
  UL70 (P17149) protein, numerical value of heatmap FIG. 6C: 0.8327
  UL83 (P06725) protein, numerical value of heatmap FIG. 6C: 1.027
  UL132 (P69338) protein, numerical value of heatmap FIG. 6C: 0.6887
  US15 (P09718) protein, numerical value of heatmap FIG. 6C: 0.6108
  sp|P16808|IR10_HCMVA (P16808) protein, numerical value of heatmap FIG. 6C: 0.6859
  sp|P16810|IR12_HCMVA (P16810) protein, numerical value of heatmap FIG. 6C: 0.5726
Timepoint 120
  DUT (P16824) protein, numerical value of heatmap FIG. 6C: 1.034
  TRM3 (P16732) protein, numerical value of heatmap FIG. 6C: 0.9855
  TRX1 (P16783) protein, numerical value of heatmap FIG. 6C: 1.114
  TRX2 (P16728) protein, numerical value of heatmap FIG. 6C: 1.493
  UL24 (P16760) protein, numerical value of heatmap FIG. 6C: 1.171
  UL40 (P16780) protein, numerical value of heatmap FIG. 6C: 0.9491
  UL47 (P16784) protein, numerical value of heatmap FIG. 6C: 0.9878
  UL49 (P16786) protein, numerical value of heatmap FIG. 6C: 0.6463
  UL69 (P16749) protein, numerical value of heatmap FIG. 6C: 1.467
  UL70 (P17149) protein, numerical value of heatmap FIG. 6C: 1.255
  UL83 (P06725) protein, numerical value of heatmap FIG. 6C: 1.677
  UL132 (P69338) protein, numerical value of heatmap FIG. 6C: 0.8677
  US15 (P09718) protein, numerical value of heatmap FIG. 6C: 0.4974
  sp|P16808|IR10_HCMVA (P16808) protein, numerical value of heatmap FIG. 6C: 0.9054
  sp|P16810|IR12_HCMVA (P16810) protein, numerical value of heatmap FIG. 6C: 0.762
Early time points
  levels of HCMV IE and E proteins: decreased levels

Source: patent US20240027453A1, “METHOD FOR DETECTION AND QUANTITATIVE MONITORING OF INFECTIONS WITH HERPESVIRUSES” (The Trustees of Princeton University, priority 2020, published 2024)
